# Experimental data reported in patent US9750817B2, “Amphotericin B derivatives” (priority 2015, dated 2017).
# Like-named read-outs stand apart in the source and are kept apart here.
# Experiments:
# Aspergillus fumigatus = experiment: MIC/MFC broth dilution (CLSI), clinical isolates; type: cell-based; conditions: A. fumigatus
# Method: (§1) Isolates of Aspergillus fumigatus, Aspergillus flavus, Aspergillus terreus Aspergillus niger, Rhizopus oryzae, Candida albicans and Candida krusei were isolated from patients in Israeli hospitals and used for in vitro efficacy studies.
# (§2) Efficacy was evaluated by measuring minimum inhibitory concentration (MIC) and minimum fungicidal concentration (MFC) values for fungal isolates. Testing of isolates was performed according to the Clinical & Laboratory Standards Institute (CLSI) method. (CLSI. 2008. M27-A3 Reference method for broth dilution antifungal susceptibility testing of yeasts; Approved Standard—3rd edition. Clinical and Laboratory Standards Institute, Wayne). RPMI MOPS media was used throughout the experiment as growth and dilution media. Spores and yeast cells were harvested in 0.05% Tween from 24-48 h and cultures were grown in rich yeast extract-agar-glucose (YAG) medium (composed of: 0.5% w/v yeast extract, 1% w/v glucose, 10 millimolar (mM) MgCl2, supplemented with 0.1% v/v trace elements solution, and 0.2% v/v vitamin mix). The spores and the yeast cells were counted and diluted to a final concentration of 2.5×10^4 per ml. A stock solution of 5 mg/ml was prepared in dimethylsulfoxide for free AMB. Compounds 4 and 6 were prepared in sterile saline. Double dilutions of each drug were performed in 100 μL volume of RPMI-MOPS in 96 well plates beginning with a final concentration of 32 micrograms (μg)/well of each drug to 0.06 μg/well. 2500 spores or yeast cells were added to each well. Results were recorded 48 h post incubation at 37° C. […] The MFC was defined as the lowest drug concentration that yielded three or fewer colonies (i.e. 99% of the inoculum was killed).
# [1] = Solubility in double-distilled water; type: physicochemical
# Method: Physical characteristics of AMB derivatives and of AMB were tested, including solubility.
# [2] = tested on: mouse embryonic fibroblasts (MEFs); experiment: MTT viability assay in mouse embryonic fibroblasts; type: cell-based
# Method: Reference is made to FIG. 4C. Mouse embryonic fibroblasts were used in this example. 1×10^4 mouse embryonic fibroblasts (MEFs) per well were seeded in 96-well plates and incubated at 37° C. After 24 h the media was replaced with 100 μl culture medium containing serial dilutions of AMB, compounds 4 or 6, or left untreated. After 24 h, the media was replaced by fresh media (100 μl per well) containing 1 mg/ml MTT (3-(4,5-Dimethylthiazol-2-yl)-2,5-Diphenyltetrazolium Bromide, ((Biological Industries, Israel)) reagent and the cells were incubated for an additional 3 h at 37° C. MTT-formazan crystals were dissolved by the addition of 100 μl per well of extraction solution (20% SDS, 50% N,N-dimethyl formamide (DMF), pH=4.7) and incubation for 16 h at 37° C. Absorbance at 570 nm was recorded on a Biotek Synergy HT plate reader.
# The results were expressed as the percentage of living cells relative to the untreated control and are depicted in FIG. 4C. The inhibition concentration (IC50) value is the concentration of the compound which inhibited cell growth by 50%.
# Aspergillus terreus = experiment: MIC/MFC broth dilution (CLSI), clinical isolates; type: cell-based; conditions: listed as printed C. terreus, 1 isolate, 48 h at 37° C.
# Method: as §1, §2
# Aspergillus flavus = experiment: MIC/MFC broth dilution (CLSI), clinical isolates; type: cell-based; conditions: A. Flavus, 3 isolates, 48 h at 37° C.
# Method: as §1, §2
# Aspergillus niger = experiment: MIC/MFC broth dilution (CLSI), clinical isolates; type: cell-based; conditions: A. niger, 3 isolates, 48 h at 37° C.
# Method: as §1, §2
# Rhizopus oryzae = experiment: MIC/MFC broth dilution (CLSI), clinical isolates; type: cell-based; conditions: 1 isolate, 48 h at 37° C.
# Method: as §1, §2
# Candida albicans = experiment: MIC/MFC broth dilution (CLSI), clinical isolates; type: cell-based; conditions: C. albicans, 2 isolates, 48 h at 37° C.
# Method: as §1, §2
# Candida krusei = experiment: MIC/MFC broth dilution (CLSI), clinical isolates; type: cell-based; conditions: C. krusei, 3 isolates, 48 h at 37° C.
# Method: as §1, §2
# [3] = Stability (hydrolysis) in phosphate buffered saline; type: physicochemical
# [4] = Solubility in 0.9% saline after vortex, sonication and centrifuge; type: physicochemical
# human erythrocytes = experiment: In-vitro toxicity (hemolysis) study; type: cell-based; conditions: 6 μg/ml
# Method: Reference is made to FIG. 4B. Fresh human erythrocytes were diluted 1:100 in PBS, and incubated in an Eppendorf tube while rotating slowly in the presence of 6 μg/ml of each of compound 4 and compound 6. Amphotericin B was used as positive control. Sterile double distilled water served as a control for 100% hemolysis. After 1, 3, 5 and 21 h, 20 μl of each test tube were removed and diluted in 180 μl PBS. Samples were centrifuged for 10 minutes at 1200 RPM and the optical density of the supernatant was measured at 425 nm.
# ICR mice = experiment: In vivo toxicity, intravenous injection; conditions: female ICR mice, intravenous
# Method: In-vivo toxicity was determined in mice using 6 week old female ICR mice (n=6). Different concentrations of each formulation were injected intravenously through the tail vein, 0.2 ml per mouse, until death was observed. PAD-AMB conjugates were prepared in sterile saline solution and were filtered through 0.45-micrometer pore-size cellulose acetate sterile filters prior to injection.
# C. albicans (CBS562) = experiment: MIC of compound 6, AMB and FMOC-6; type: cell-based, Candida albicans
# Method: as §2
# (§3) In addition, the amine protected equivalent of compound 6 in which the amine of compound 6 was protected with an FMOC group was tested (designated FMOC-6) to determine MIC versus AMB and versus compound 6 against A. fumigatus (Af 293) and C. albicans (CBS562).
# A. fumigatus (Af 293) = experiment: MIC of compound 6, AMB and FMOC-6; type: cell-based, Aspergillus fumigatus
# Method: as §2, §3
compound,measurement,setting,value
CC1C=CC=CC=CC=CC=CC=CC=CC(OC2OC(C)C(O)C(NC(=O)CCOCCOCCOCCOCCN)C2O)CC2OC(O)(CC(O)CC(O)C(O)CCC(O)CC(O)CC(=O)OC(C)C(C)C1O)CC(O)C2C(=O)O (centres unmarked) [AMB-PEG4-amine],MIC,Aspergillus fumigatus; strain not stated,2 to 3 µg/mL
same,Solubility,[1]; double-distilled water,300 µg/mL
COC(=O)C1C(O)CC2(O)CC(O)CC(O)C(O)CCC(O)CC(O)CC(=O)OC(C)C(C)C(O)C(C)C=CC=CC=CC=CC=CC=CC=CC(OC3OC(C)C(O)C(NC(=O)CCOCCOCCOCCOCCN)C3O)CC1O2 (centres unmarked) [AME-PEG4-amine],Solubility,[1],Insoluble
"COC(=O)[C@H]1[C@@H]2C[C@@H](O[C@@H]3O[C@H](C)[C@@H](O)[C@H](N)[C@@H]3O)/C=C/C=C/C=C/C=C/C=C/C=C/C=C/[C@H](C)[C@@H](O)[C@@H](C)[C@H](C)OC(=O)C[C@H](O)C[C@H](O)CC[C@@H](O)[C@H](O)C[C@H](O)C[C@](O)(C[C@@H]1O)O2 [Amphotericin B methyl ester, reference compound]",Solubility,[1],<1 µg/mL
"C[C@@H]1[C@H](O)[C@@H](C)/C=C/C=C/C=C/C=C/C=C/C=C/C=C/[C@H](O[C@@H]2O[C@H](C)[C@@H](O)[C@H](NC(=O)CCOCCOCCOCCOCCOCCOCCOCCOCCN)[C@@H]2O)C[C@@H]2O[C@](O)(C[C@@H](O)C[C@@H](O)[C@H](O)CC[C@@H](O)C[C@@H](O)CC(=O)O[C@H]1C)C[C@H](O)[C@H]2C(=O)O [Compound 4, amphotericin B amide-PEG(8)-amine]",IC50 (concentration which inhibited cell growth by 50%),"[2]; 24 h exposure, MTT",280 µg/mL
same,times less toxic than AMB,[2]; from IC50,40 times
same,MFC,Aspergillus terreus,32 µg/mL
same,MIC,Aspergillus terreus,32 µg/mL
same,MFC,Aspergillus flavus,4 to 8 µg/mL
same,MIC,Aspergillus flavus,4 to 8 µg/mL
same,MFC,Aspergillus niger,1 to 4 µg/mL
same,MIC,Aspergillus niger,1 to 4 µg/mL
same,MFC,Rhizopus oryzae,8 µg/mL
same,MIC,Rhizopus oryzae,8 µg/mL
same,MFC,Candida albicans,4 µg/mL
same,MIC,Candida albicans,1 to 2 µg/mL
same,MFC,Candida krusei,8 µg/mL
same,MIC,Candida krusei,4 to 8 µg/mL
same,MFC,"Aspergillus fumigatus; 4 isolates, 48 h at 37° C.",4 to 16 µg/mL
same,MIC,"Aspergillus fumigatus; 4 isolates, 48 h at 37° C.",4 to 16 µg/mL
same,hydrolysis after 4 hours,[3]; 4 hours,no hydrolysis could be observed
same,level of hydrolysis after 24 hours,[3]; 24 hours,0.51%
same,increased solubility relative to corresponding non-PEG-conjugated AMB compounds,[4],greater than 5500 fold
same,hemolytic activity,human erythrocytes; after 3 h of agitation,small hemolytic activity
same,toxicity to erythrocytes,human erythrocytes; assay conditions of FIG. 4B,less toxic (about four times less)
same,mouse LD50 fold higher than AMB,ICR mice,at least 20 fold
same,signs of toxicity at the highest injectable doses,ICR mice,did not show any signs of toxicity
same,LD50,ICR mice; tail vein,not reached
same,Maximum Dose,ICR mice; tail vein,22 mg/kg
same,Solubility,[1]; double-distilled water,5500 µg/mL
COC(=O)C1C(O)CC2(O)CC(O)CC(O)C(O)CCC(O)CC(O)CC(=O)OC(C)C(C)C(O)C(C)C=CC=CC=CC=CC=CC=CC=CC(OC3OC(C)C(O)C(NC(=O)CCOCCOCCOCCOCCOCCOCCOCCOCCNC(=O)OCC4c5ccccc5-c5ccccc54)C3O)CC1O2 (centres unmarked) [FMOC-6],MIC,C. albicans (CBS562),>32 µg/mL
same,MIC,A. fumigatus (Af 293),>32 µg/mL
